The source of these data is US8722629B2, “Auristatin derivatives and use thereof” (Seattle Genetics, Inc., priority 2010, dated 2014).

The half-life is how long it takes for the measured level to halve. Read a low half-life as rapid decline. Broadly, the IC50 is the point on the concentration scale where inhibition reaches its midpoint. A high value points to lower potency.

The nature of data set [1]: Plasma stability in vitro, human plasma. It counts as in vitro ADME. The protocol:
(§1) B-4. Determination of the Plasma Stability in vitro:
(§2) 1 mg of the test substance in question was dissolved in 0.5 ml of acetonitrile/DMSO (9:1). From this solution, 20 μl were removed and added to 1 ml of rat or human plasma at 37° C. (plasma of male Wistar rats with Li heparin from Harlan & Winkelmann or fresh human leukocyte-depleted plasma originating from a whole blood sample). From this plasma solution, which was shaken vigorously, 100 μl aliquots were removed immediately after addition of the sample (initial value as reference) and then after 5, 10, 30, 60, 120, 180 and 240 minutes and optionally after 24 hours and added to 300 μl of acetonitrile. The precipitated plasma proteins were removed by centrifugation at 5000 rpm for 10 minutes, and 30 μl of the supernatant were analysed by HPLC for its content of unmodified test substance. Quantification was via the area percentages of the corresponding peaks.
HPLC Method for Human Plasma:
Instrument: Agilent 1100 with DAD, binary pump, autosampler, column oven and thermostat;
column: Kromasil 100 C18, 250 mm×4 mm, 5 μm; column temperature: 45° C.; mobile phase A: 5 ml of perchloric acid/1 of water, mobile phase B: acetonitrile; gradient: 0-3 min 98% A, 2% B; 3-10 min 65% A, 35% B; 10-15 min 40% A, 60% B; 15-21 min 10% A, 90% B; 21-22 min 10% A, 90% B; 22-24 min 98% A, 2% B; 24-26 min 98% A, 2% B; flow rate: 2 ml/min; UV detection: 220 nm.
(§3) The test substance was incubated in rat or human plasma at 37° C. over a period of 5 h with gentle stirring. At different points in time (0, 2, 5, 10, 20, 30, 60, 120, 180 and 300 minutes), a 100 μl aliquot was removed. Following addition of internal standard (10 μl), the proteins were precipitated by addition of 200 μl of acetonitrile and the mixture was centrifuged in an Eppendorf centrifuge for 5 minutes. After addition of 150 μl of ammonium acetate buffer pH 3 to 150 μl of the supernatant, the content of unmodified test substance was analysed by LC/MSMS.

A short description of data set [2]: Plasma stability in vitro, rat plasma. It counts as in vitro ADME. Conditions: male, Wistar, rat plasma (Li heparin), 37° C., Method A (HPLC). The method, then:
as §1, §2
HPLC Method for Rat Plasma:
Instrument: Agilent 1200 with DAD, binary pump, autosampler, column oven and thermostat; column: Kromasil 100 C18, 250 mm×4 mm, […]; column temperature: 45° C.; mobile phase A: 5 ml of perchloric acid/1 of water, mobile phase B: acetonitrile; gradient: 0-8 min 98% A, 2% B; 8-15 min 56% A, 44% B; […] 10% A, 90% B; 20-21 min 10% A, 90% B; […] 98% A, 2% B; […] 98% A, 2% B; flow rate: 2 ml/min; UV detection: 220 nm.
as §3

Data set [3] relates to human renal cancer cell line 786-0. Nature of the data set: Antiproliferative effect on the 786-0 RCC cell line (MTT assay). Particulars: Homo sapiens, 786-0, 786-0 cells, incubation 48 h to 96 h. It counts as cell-based. The protocol: B-1. Determination of the Antiproliferative Effect on the 786-0 RCC Cell Line:
A defined cell number of the human renal cancer cell line 786-0 was sown in a 96-well microtiter plate in complete medium (2500 or 7000 cells/well) and incubated at 37° C./5% CO2 overnight. After 18 h, the sowing medium was replaced by serum-free medium or medium with 2% FCS. Treatment was initiated by addition of the respective test substance in varying concentration (10^−5 M to […]). The chosen incubation times were from 48 h to 96 h. Proliferation was determined with the aid of the MTT assays (ATCC, Manassas, Va., USA, catalogue No. 30-1010K). After the incubation time, the MTT reagent was incubated with the cells for 4 h, and the cells were subsequently lysed by adding the detergent overnight. The dye formed was detected at 570 nm. […] The data obtained from this test are triple determinations, and at least two independent experiments were carried out.
A general note: Tetrazolium assays rely on reduction of a dye to a coloured formazan, in cell work by metabolically active cells.

Data set [4] has as its system human colon carcinoma cell line HT29 wt (wild type). Nature of the data set: Antiproliferative effect on the HT29 wt cell line (MTT assay). Conditions: Homo sapiens, HT-29, HT29 wt cells, 10% FCS, incubation 48 h to 96 h. It counts as cell-based. The method, then: B-2. Determination of the Antiproliferative Effect on the HT29 Wt Cell Line:
A defined cell number of the human colon carcinoma cell line HT29 wt (wild type) was sown in a 96-well microtiter plate in complete medium (10% FCS-RPMI) (2500 cells/well) and incubated at 37° C./5% CO2 overnight. After 18 h, the sowing medium was replaced by fresh medium with 10% FCS. Treatment was initiated by addition of the respective test substance. From the substances to be investigated, dose/activity curves in a concentration range of from 10^−5 M to 10^−14 M (1:10-dilution series) were determined. The chosen incubation times were from 48 h to 96 h. Pro-liferation was determined with the aid of the MTT assays (ATCC, Manassas, Va., USA, catalogue No. 30-1010K). After the incubation time, the MTT reagent was incubated with the cells for 4 h, and the cells were subsequently lysed by adding the detergent overnight. The dye formed was detected at 570 nm. Proliferation of cells which had not been treated with test substance, but had otherwise been treated identically, was defined as 100%. The data obtained from this test are triple determinations, and at least two independent experiments were carried out.

Structures are written as SMILES. Counter-ions that a name gives are not always drawn. Starred links: 1 amine or outer side, 2 acyl side, 3 side chain; linkers in the order of their positions; H or OH if unused. Non-standard residues stand in square brackets, D forms with d. Residues, ends and D or L forms follow the SMILES beside them. *: point of attachment. Dolaproine = CO[C@@H]([C@@H]1CCCN1)[C@@H](C)C(=O)O; X1 = O=C([C@]1(N[*:1])C[C@@H]1c1ccccc1)[*:2]; Dil = CC[C@H](C)[C@H](NC)[C@@H](CC(=O)O)OC; Oxazinan2yl(1,2) = C1CCN(*)OC1; NMeV = CN[C@H](C(=O)O)C(C)C

Turning to `CC[C@H](C)[C@@H]([C@@H](CC(=O)N1CCC[C@H]1[C@H](OC)[C@@H](C)C(=O)N[C@@]1(C(=O)N2CCCCO2)C[C@@H]1c1ccccc1)OC)N(C)C(=O)[C@@H](NC(=O)[C@@H](NC)C(C)C)C(C)C` [Example 17, N-Methyl-L-valyl-N-[(3R,4S,5S)-3-methoxy-1-{(2S)-2-[(1R,2R)-1-methoxy-2-methyl-3-{[(1S,2R)-1-(1,2-oxazinan-2-ylcarbonyl)-2-phenylcyclopropyl]amino}-3-oxopropyl]pyrrolidin-1-yl}-5-methyl-1-oxoheptan-4-yl]-N-methyl-L-valinamide, trifluoroacetic acid salt] (H-[NMeV]V[Dil][Dolaproine][X1]-{Oxazinan2yl(1,2)}), the “degradation in human plasma after 24 h” value in data set [1] is recorded as “no degradation was observed”. In addition, in data set [2], the half-life at 39.2 µg/ml was greater than 24 h. In addition, the half-inhibitory concentration (IC50) amounted to 4 nM in data set [3] and 0.5 nM in data set [4].
